From ChEMBL document CHEMBL1201862, “PubChem BioAssay data set” (2004) come the findings set out here.

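Compound exposure: 48 hours, 5 concentrations, 96-well plates. Abbreviation: GI50, concentration required for 50% inhibition of growth.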 The source made the active and inactive calls. Rule as the data show it: active = GI50 up to about 1.1 µM and inactive = higher. Bounds are passed on as bounds.

Some test systems named below: OVCAR-5; 786-0; ACHN; UO-31; SF-539; UACC-257; RXF 393; SK-MEL-5; A549; SW-620; HL-60; SNB-75; OVCAR-8; M14; CCRF-CEM; OVCAR-4; NCI-H460; HCT-15.
Holding throughout (assay): inhibition of tumour cell growth, NCI panel, 48 h

For the compound `CC(=O)CC(=O)N(CCN(C(=O)CC(C)=O)c1ccccc1)c1ccccc1`, the GI50 was > 100 µM (inactive) in the assay with OVCAR-5; > 100 µM (inactive) in the assay on 786-0; > 100 µM (inactive) in the assay with ACHN; > 100 µM (inactive) with UO-31; > 100 µM (inactive) in the assay with SF-539; 32.2 µM (inactive) in the assay with UACC-257. For the same compound, the GI50 was > 100 µM (inactive) with RXF 393; > 100 µM (inactive) in the assay with SK-MEL-5; > 100 µM (inactive) with A549; > 100 µM (inactive) in the assay on SW-620; 43.4 µM (inactive) in the assay on HL-60; 51.8 µM (inactive) in the assay on SNB-75. Besides, the GI50 with OVCAR-8 was > 100 µM (inactive); in the assay with M14, > 100 µM (inactive); in the assay with CCRF-CEM, 58.2 µM (inactive); in the assay on OVCAR-4, > 100 µM (inactive); in the assay with NCI-H460 it was > 100 µM (inactive).
In the case of `CCOc1ccccc1NC(=O)C1=C(C)NC(C)=C(C(=O)Nc2ccccc2OCC)C1c1cccc([N+](=O)[O-])c1`, the GI50 in the assay on OVCAR-5 was > 100 µM (inactive); in the assay on 786-0 it was 57.9 µM (inactive); in the assay with ACHN it was 29.9 µM (inactive); with UO-31, 28.2 µM (inactive); in the assay with SF-539, 40.2 µM (inactive); in the assay on UACC-257, 27.2 µM (inactive). The GI50 in the assay with RXF 393 is 47.4 µM (inactive); with SK-MEL-5, 32.1 µM (inactive); with A549, 31.6 µM (inactive); in the assay with SW-620, 42.6 µM (inactive); with HL-60, 30.5 µM (inactive); with SNB-75, 11.6 µM (inactive). Besides, the GI50 in the assay with OVCAR-8 was 86.5 µM (inactive); in the assay on M14 it was > 100 µM (inactive); with CCRF-CEM it was 37.9 µM (inactive); in the assay on OVCAR-4 it was 14.2 µM (inactive); in the assay with NCI-H460 it was 87.9 µM (inactive).
For the compound `CC(C)N(C(=O)C12C3C4C1C1C2C3C41I)C(C)C` (stereo not given), the GI50 in the assay on OVCAR-5 is 84.3 µM (inactive); with 786-0, > 100 µM (inactive); in the assay on ACHN it was > 100 µM (inactive); in the assay with UO-31, > 100 µM (inactive); in the assay on SF-539 it was > 10 µM (inactive); with SK-MEL-5, > 100 µM (inactive). For the same compound, the GI50 in the assay with A549, in the assay on SW-620, with HL-60, with SNB-75, in the assay with OVCAR-8 and with M14 was > 100 µM (inactive) each time. Moreover, the GI50 in the assay with CCRF-CEM, with OVCAR-4 and in the assay with NCI-H460 was > 100 µM (inactive) in each case.
As to `COc1cc2c(cc1OC)C1c3ccccc3C(C#N)(C2)N(C(=O)c2ccccc2)C1O` (stereo not given), the GI50 with OVCAR-5 is > 100 µM (inactive); with 786-0, > 100 µM (inactive); in the assay on ACHN, 50 µM (inactive); in the assay on UO-31, 61.8 µM (inactive); with SF-539, > 100 µM (inactive); with UACC-257, 60.7 µM (inactive). Further, the GI50 with RXF 393 is 85.5 µM (inactive); with SK-MEL-5, 30.7 µM (inactive); in the assay with SW-620, 65 µM (inactive); in the assay with HL-60 it was 42.3 µM (inactive); in the assay with SNB-75 it was 45.7 µM (inactive); with OVCAR-8 it was 54.2 µM (inactive). Further, the GI50 in the assay with M14 was 79.1 µM (inactive); in the assay with HCT-15, 55.8 µM; in the assay on CCRF-CEM, 52.1 µM (inactive); in the assay with NCI-H460, 59.7 µM (inactive).
Take `CC1(O)CC2C(CC1SC1CC3C(CC1(C)O)C3(C)C)C2(C)C` (stereo not given): the GI50 with OVCAR-5 was 78.9 µM (inactive); in the assay on 786-0 it was 43.6 µM (inactive); in the assay with ACHN, 35 µM (inactive); with UO-31, 24 µM (inactive); with SF-539 it was > 100 µM (inactive); in the assay on UACC-257 it was 49 µM (inactive). For the same compound, the GI50 was 11.6 µM (inactive) with SK-MEL-5; 50.8 µM (inactive) with A549; 22.9 µM (inactive) in the assay with HL-60; 27.9 µM (inactive) with SNB-75; 41.9 µM (inactive) with OVCAR-8; 48.2 µM (inactive) in the assay with M14. The GI50 in the assay on HCT-15 was 39.1 µM; in the assay with CCRF-CEM, 27 µM (inactive); with OVCAR-4, 21.7 µM (inactive); with NCI-H460, 30.7 µM (inactive).
`CC1=C(CC2C(=O)N(c3ccccc3)S(=O)(=O)NC2C)C(=O)N(c2ccccc2)S(=O)(=O)N1C` (stereo not given): the GI50 in the assay with OVCAR-5, in the assay with 786-0, in the assay on ACHN, in the assay on UO-31, in the assay on SF-539 and with SK-MEL-5 was > 100 µM (inactive) throughout. Moreover, the GI50 in the assay with A549 was > 100 µM (inactive); in the assay on SW-620, > 100 µM (inactive); with SNB-75 it was > 100 µM (inactive); in the assay with OVCAR-8 it was > 100 µM (inactive); in the assay with M14 it was > 100 µM (inactive); in the assay with HCT-15 it was above 100 µM. Further, the GI50 with CCRF-CEM, in the assay on OVCAR-4 and in the assay with NCI-H460 was > 100 µM (inactive) throughout.
Consider `CC1CCCC(C(O)CC2CC(=O)N(c3ccccc3)C(=O)C2)C1=O` (stereo not given), for which the GI50 in the assay on OVCAR-5, in the assay with 786-0, in the assay with ACHN, in the assay on UO-31, with SF-539 and in the assay with UACC-257 was > 100 µM (inactive) throughout. Further, the GI50 with RXF 393, with A549, in the assay on SW-620, in the assay with HL-60, in the assay on SNB-75 and with OVCAR-8 was > 100 µM (inactive) throughout. In addition, the GI50 with M14, in the assay with CCRF-CEM, in the assay on OVCAR-4 and in the assay on NCI-H460 was > 100 µM (inactive) throughout.
Turning to `Clc1ccc(OCc2nnc3n2N=C(c2ccccc2)CS3)cc1`, the GI50 was 21.3 µM (inactive) in the assay with OVCAR-5; 16.2 µM (inactive) in the assay with 786-0; 10.9 µM (inactive) with ACHN; 5.42 µM (inactive) with UO-31; 18.2 µM (inactive) in the assay with SF-539; 14.9 µM (inactive) in the assay with UACC-257. Moreover, the GI50 is 16.4 µM (inactive) in the assay on A549; 14.7 µM (inactive) in the assay on SW-620; 13 µM (inactive) in the assay with HL-60; 27 µM (inactive) in the assay on SNB-75; 14.1 µM (inactive) in the assay on OVCAR-8; 21.5 µM (inactive) in the assay on M14. The GI50 is 13.8 µM in the assay with HCT-15, 15.6 µM (inactive) in the assay with OVCAR-4 and 16.8 µM (inactive) with NCI-H460.
For `N#CC1=C(Cl)NC(Cl)=C(C#N)C1c1ccc(Cl)cc1`, the GI50 was 34 µM (inactive) in the assay with OVCAR-5; 15.8 µM (inactive) with 786-0; 17.7 µM (inactive) in the assay on ACHN; 17 µM (inactive) with UO-31; 18.1 µM (inactive) with SF-539; 18.3 µM (inactive) in the assay on UACC-257. Besides, the GI50 is 17.1 µM (inactive) in the assay on RXF 393; 17 µM (inactive) in the assay on SK-MEL-5; 22.1 µM (inactive) in the assay with A549; 13.5 µM (inactive) in the assay with SW-620; 18.5 µM (inactive) with HL-60; 14.9 µM (inactive) in the assay on SNB-75. For the same compound, the GI50 in the assay on OVCAR-8 is 16.2 µM (inactive); in the assay with M14 it was 16.8 µM (inactive); with HCT-15, 15.4 µM; in the assay with CCRF-CEM it was 25 µM (inactive); in the assay on NCI-H460, 17 µM (inactive).
Regarding `O=C1C2C(C(=O)N1c1ccccc1)C1([N+](=O)[O-])C=C3c4ccccc4N(C(=O)c4ccccc4)C32C2C(=O)N(c3ccccc3)C(=O)C21` (stereo not given), the GI50 in the assay on OVCAR-5 was > 100 µM (inactive); in the assay with 786-0 it was > 100 µM (inactive); in the assay on ACHN it was > 100 µM (inactive); with UO-31, > 100 µM (inactive); with SF-539 it was > 10 µM (inactive); with UACC-257 it was > 100 µM (inactive). Moreover, the GI50 in the assay with A549, with SW-620, in the assay on HL-60, with SNB-75, in the assay on OVCAR-8 and with M14 was > 100 µM (inactive) throughout. Also, the GI50 in the assay with HCT-15 was above 100 µM; with CCRF-CEM it was > 100 µM (inactive); in the assay with NCI-H460, > 100 µM (inactive).
Take `Cc1c(C(=O)/C=C/c2ccccc2)[n+]([O-])c2ccccc2[n+]1[O-]`: the GI50 in the assay with OVCAR-5 was 16.7 µM (inactive); in the assay on 786-0, 17.2 µM (inactive); in the assay on ACHN, 17.7 µM (inactive); in the assay on UO-31, 20 µM (inactive); with SF-539, 15.5 µM (inactive); in the assay on UACC-257, 16.6 µM (inactive). Besides, the GI50 is 2.07 µM (inactive) in the assay on RXF 393; 18.4 µM (inactive) in the assay with A549; 14.8 µM (inactive) with SW-620; 13.9 µM (inactive) in the assay on HL-60; 23.6 µM (inactive) in the assay with SNB-75; 15 µM (inactive) with OVCAR-8. For the same compound, the GI50 was 15.3 µM (inactive) in the assay with M14, 22.2 µM (inactive) with CCRF-CEM, 15 µM (inactive) with OVCAR-4 and 17.6 µM (inactive) in the assay on NCI-H460.
`CC1(Cl)CC(C)(/C=C/Cl)C(Cl)CC1Cl` (stereo not given): the GI50 in the assay with OVCAR-5 is 18.9 µM (inactive); with 786-0, 15.4 µM (inactive); in the assay with ACHN it was 14.7 µM (inactive); with UO-31, 16.1 µM (inactive); in the assay on SF-539, 17.1 µM (inactive); in the assay with RXF 393, 14.8 µM (inactive). Moreover, the GI50 was 14 µM (inactive) in the assay with SK-MEL-5; 14 µM (inactive) in the assay on A549; 15.7 µM (inactive) in the assay on SW-620; 18.8 µM (inactive) in the assay with SNB-75; 16.8 µM (inactive) in the assay with OVCAR-8; 17 µM (inactive) in the assay with M14. Further, the GI50 in the assay with HCT-15 was 14.1 µM; in the assay on CCRF-CEM, 19.1 µM (inactive); in the assay on OVCAR-4 it was 17.7 µM (inactive); in the assay on NCI-H460 it was 14.2 µM (inactive).
Turning to `CC1=CCCC2C(C=O)(C1)CC(C)C2(CO)CC/C(=C/CO)CO` (stereo not given), the GI50 with 786-0 was > 100 µM (inactive); with ACHN, > 100 µM (inactive); in the assay with UO-31, 24.9 µM (inactive); in the assay with UACC-257 it was 98.9 µM (inactive); in the assay with RXF 393, > 100 µM (inactive); with SK-MEL-5, > 100 µM (inactive). The GI50 in the assay on A549 was > 100 µM (inactive); with SW-620, > 100 µM (inactive); in the assay on SNB-75, 37.8 µM (inactive); in the assay on OVCAR-8 it was > 100 µM (inactive); in the assay with M14, > 100 µM (inactive); in the assay with HCT-15, above 100 µM. The values for the GI50 in the assay with CCRF-CEM and with NCI-H460 were 71.9 µM (inactive) and > 100 µM (inactive), respectively.
